From PubChem BioAssay AID256 (DTP/NCI, 2004)
Inconclusive results and toxic doses are left out. The calls were made as follows: active = survival T/C of 150% or more; inactive = T/C below 125% in these data.

Test system: CD2F1 mice, L1210 leukemia ip, survival T/C
Assay: NCI In Vivo Anticancer Drug Screen. Data for tumor model L1210 Leukemia (intraperitoneal) in CD2F1 (CDF1) mice
Settings: endpoint: mean survival time, higher = longer survival
Method in brief: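 Activity against a transplanted murine tumor was judged by comparing the compound group with a vehicle group. The outcome in the treated animals was divided by that in the controls.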

[1] = dose: 100.0 mg/kg/injection, schedule: Q01DX001 (ip), vehicle: saline with Tween-80
[2] = dose: 100.0 mg/kg/injection, schedule: Q01DX009 (ip), vehicle: saline with Tween-80
[3] = dose: 100.0 mg/kg/injection, schedule: Q04DX003 (ip), vehicle: saline with Tween-80
[4] = dose: 200.0 mg/kg/injection, schedule: Q01DX001 (ip), vehicle: saline with Tween-80
[5] = dose: 200.0 mg/kg/injection, schedule: Q01DX009 (ip), vehicle: saline with Tween-80
[6] = dose: 200.0 mg/kg/injection, schedule: Q04DX003 (ip), vehicle: saline with Tween-80
[7] = dose: 400.0 mg/kg/injection, schedule: Q01DX001 (ip), vehicle: saline with Tween-80
[8] = dose: 400.0 mg/kg/injection, schedule: Q01DX009 (ip), vehicle: saline with Tween-80
[9] = dose: 400.0 mg/kg/injection, schedule: Q04DX003 (ip), vehicle: saline with Tween-80
[10] = dose: 50.0 mg/kg/injection, schedule: Q01DX009 (ip), vehicle: saline with Tween-80

Measured: T/C

NNc1ncn[nH]1
inactive: dose: 25.0 mg/kg/injection, schedule: Q01DX001 (ip), vehicle: saline with Tween-80 98 % of control | dose: 50.0 mg/kg/injection, schedule: Q01DX001 (ip), vehicle: saline with Tween-80 101 % of control

Clc1ccc(Sc2ccc(Cl)cc2)cc1
inactive: [1] 94 % of control | [2] 98 % of control | [3] 91 % of control | [4] 108 % of control | [5] 102 % of control | [6] 91 % of control | [7] 91 % of control | [8] 98 % of control

O/N=C(\c1ccccc1)C1C(/C(=N/O)c2ccccc2)C1c1ccccc1 (stereo not drawn) (tested in a mixture with another compound)
inactive: [2] 95 % of control | [5] 95 % of control | [8] 90 % of control

C=C(C)COc1c(C)cc(C)cc1[N+](=O)[O-]
inactive: [2] 98 % of control | [5] 100 % of control | [8] 104 % of control

CCOC(=O)C(Cc1ccccc1Cl)(Cc1ccccc1Cl)c1ccccc1
inactive: [3] 93 % of control | [6] 98 % of control | [9] 90 % of control

COc1ccccc1NC1=NCCO1
inactive: dose: 25.0 mg/kg/injection, schedule: Q04DX002 (ip), vehicle: saline with Tween-80 105 % of control | dose: 50.0 mg/kg/injection, schedule: Q04DX002 (ip), vehicle: saline with Tween-80 97 % of control | [1] 90 % of control | dose: 100.0 mg/kg/injection, schedule: Q04DX002 (ip), vehicle: saline with Tween-80 94 % of control

FC1(F)C2Cc3ccccc3C2C1(Cl)Cl (stereo not drawn)
inactive: dose: 75.0 mg/kg/injection, schedule: Q01DX001 (ip), vehicle: saline 103 % of control | dose: 150.0 mg/kg/injection, schedule: Q01DX001 (ip), vehicle: saline 101 % of control | dose: 300.0 mg/kg/injection, schedule: Q01DX001 (ip), vehicle: saline 100 % of control

COc1ccc(OC)c(NC(=O)NNc2ccc([N+](=O)[O-])cc2[N+](=O)[O-])c1
inactive: [2] 88 % of control | [5] 91 % of control

Cc1[nH]c(=S)[nH]c(=O)c1CCO
inactive: [1] 105 % of control | [2] 101 % of control | [4] 95 % of control | [5] 103 % of control | [7] 100 % of control | [8] 101 % of control

CC(=O)Cc1cc(=O)n(C2OC(COC(=O)c3ccccc3)C(OC(=O)c3ccccc3)C2OC(=O)c2ccccc2)c(=O)[nH]1 (stereo not drawn)
inactive: dose: 12.5 mg/kg/injection, schedule: Q01DX005 (ip), vehicle: distilled water + Tween-80 97 % of control | dose: 25.0 mg/kg/injection, schedule: Q01DX005 (ip), vehicle: distilled water + Tween-80 97 % of control | dose: 50.0 mg/kg/injection, schedule: Q01DX005 (ip), vehicle: distilled water + Tween-80 105 % of control | dose: 100.0 mg/kg/injection, schedule: Q01DX005 (ip), vehicle: distilled water + Tween-80 95 % of control | dose: 200.0 mg/kg/injection, schedule: Q01DX005 (ip), vehicle: distilled water + Tween-80 100 % of control

COc1ccc(CN(CCO)Cc2ccccc2)cc1OC
inactive: [10] 100 % of control | [2] 90 % of control | [3] 98 % of control | [5] 100 % of control | [6] 97 % of control

C1CC[N-]CC1.C1CC[N-]CC1.[Cl][Pt+2]([Cl])([Cl])[Cl]
inactive: [3] 97 % of control | [6] 92 % of control | [9] 93 % of control

Cc1c[n+]([O-])cc(=O)[nH]1
inactive: [2] 97 % of control | [3] 96 % of control | [5] 97 % of control | [6] 100 % of control | [8] 95 % of control | [9] 100 % of control

O=c1[nH]cc(Cl)cc1Cl
inactive: dose: 100.0 mg/kg/injection, schedule: Q04DX003 (ip), vehicle: other 91 % of control | dose: 200.0 mg/kg/injection, schedule: Q04DX003 (ip), vehicle: other 103 % of control | dose: 400.0 mg/kg/injection, schedule: Q04DX003 (ip), vehicle: other 105 % of control

S=C(Nc1ccccc1)NC1CCCCC1
inactive: [3] 100 % of control | [6] 102 % of control | [9] 97 % of control

CC(O)(c1ccccc1)C(CCl)N1CCCCC1 (stereo not drawn)
inactive: [10] 95 % of control | [2] 97 % of control | [5] 91 % of control

Nc1nc(N)c2nc(CNc3ccc(C(=O)NC(CCC(=O)NC(CCC(=O)O)C(=O)O)C(=O)O)cc3)cnc2n1 (stereo not drawn)
inactive: dose: 0.7 mg/kg/injection, schedule: Q01DX009 (ip), vehicle: sodium bicarbonate 96 % of control | dose: 1.1 mg/kg/injection, schedule: Q01DX009 (ip), vehicle: sodium bicarbonate 92 % of control

CN(C)S(=O)(=O)Oc1ccc(N)cc1
inactive: [3] 103 % of control | [6] 101 % of control | [9] 104 % of control

O=C(CNC(=O)c1ccccc1)N/N=C/c1ccccc1O
inactive: [2] 94 % of control | [5] 95 % of control | [8] 89 % of control

Nc1nc(-c2cccc([N+](=O)[O-])c2)c(N=Nc2ccc(Br)cc2)s1
inactive: [1] 96 % of control | [4] 87 % of control | [7] 90 % of control
